In patent publication US20230278972A1, “SUBSTITUTED HALOALKYL SULFONANILIDE HERBICIDES” (FMC Corporation, priority 2020, published 2023):

Experiments:
Type in all cases: in vivo
[1] = test system: galium (catchweed bedstraw, Galium aparine); assay: Test A1 postemergence, galium; conditions: Postemergence
Excerpt: (§1) Seeds of plant species selected from, blackgrass (Alopecurus myosuroides), corn (Zea mays), Foxtail, Giant (giant foxtail, Setaria faberi), goosegrass (Eleusine indica), kochia (Bassia scoparia), Oat, Wild (wild oat, Avena fatua), Pigweed, Palmer (palmer amaranth, palmer pigweed, Amaranthus palmeri), ragweed (common ragweed, Ambrosia artemisiifolia), Ryegrass, Italian (Italian ryegrass, Lolium multiflorum), soybean (Glycine max), and wheat (Triticum aestivum) were planted into a blend of loam soil and sand and treated preemergence with a directed soil spray using test chemicals formulated in a non-phytotoxic solvent mixture which included a surfactant. At the same time, plants selected from these crop and weed species and also galium (catchweed bedstraw, Galium aparine) and horseweed (Erigeron canadensis) were planted in pots containing the same blend of loam soil and sand and treated with postemergence applications of test chemicals formulated in the same manner. Plants ranged in height from 2 to 10 cm and were in the one- to two-leaf stage for the postemergence treatment. […] A dash (-) response means no test result.

[2] = test system: Oat, Wild (wild oat, Avena fatua); assay: Test A1 postemergence, Oat, Wild; conditions: Postemergence
Excerpt: as §1

[3] = test system: Foxtail, Giant (giant foxtail, Setaria faberi); assay: Test A1 postemergence, Foxtail, Giant; conditions: Postemergence
Excerpt: as §1

[4] = test system: Oat, Wild (wild oat, Avena fatua); assay: Test A1 preemergence, Oat, Wild
Excerpt: as §1

[5] = test system: horseweed (Erigeron canadensis); assay: Test A1 postemergence, horseweed; conditions: Postemergence
Excerpt: as §1

corn (Zea mays) [6] = assay: Test A1 preemergence, corn
Excerpt: as §1

[7] = test system: ragweed (common ragweed, Ambrosia artemisiifolia); assay: Test A1 postemergence, ragweed; conditions: Postemergence
Excerpt: as §1

[8] = test system: Pigweed, Palmer (palmer amaranth, palmer pigweed, Amaranthus palmeri); assay: Test A1 preemergence, Pigweed, Palmer
Excerpt: as §1

[9] = test system: wheat (Triticum aestivum); assay: Test A1 preemergence, wheat
Excerpt: as §1

[10] = test system: ragweed (common ragweed, Ambrosia artemisiifolia); assay: Test A1 preemergence, ragweed
Excerpt: as §1

[11] = test system: Pigweed, Palmer (palmer amaranth, palmer pigweed, Amaranthus palmeri); assay: Test A1 postemergence, Pigweed, Palmer; conditions: Postemergence
Excerpt: as §1

[12] = test system: Foxtail, Giant (giant foxtail, Setaria faberi); assay: Test A1 preemergence, Foxtail, Giant
Excerpt: as §1

[13] = test system: barnyardgrass (Echinochloa crus-galli); assay: Test B1 flooded paddy test, barnyardgrass; conditions: 250 g ai/ha, Flood, applied to paddy water, 2-leaf stage, visually evaluated after 10 to 14 days
Excerpt: (§2) A dash (-) response means no test result.

[14] = test system: goosegrass (Eleusine indica); assay: Test A1 preemergence, goosegrass
Excerpt: as §1

kochia (Bassia scoparia) [15] = assay: Test A1 postemergence, kochia; conditions: Postemergence
Excerpt: as §1

kochia (Bassia scoparia) [16] = assay: Test A1 preemergence, kochia
Excerpt: as §1

rice (Oryza sativa) = assay: Test B1 flooded paddy test, rice; conditions: 250 g ai/ha, Flood, applied to paddy water, 2-leaf stage, visually evaluated after 10 to 14 days
Excerpt: as §2

[17] = test system: wheat (Triticum aestivum); assay: Test A1 postemergence, wheat; conditions: Postemergence
Excerpt: as §1

[18] = test system: Ryegrass, Italian (Italian ryegrass, Lolium multiflorum); assay: Test A1 postemergence, Ryegrass, Italian; conditions: Postemergence
Excerpt: as §1

corn (Zea mays) [19] = assay: Test A1 postemergence, corn; conditions: Postemergence
Excerpt: as §1

[20] = test system: ducksalad (Heteranthera limosa); assay: Test B1 flooded paddy test, ducksalad; conditions: 250 g ai/ha, Flood, applied to paddy water, 2-leaf stage, visually evaluated after 10 to 14 days
Excerpt: as §2

[21] = test system: blackgrass (Alopecurus myosuroides); assay: Test A1 postemergence, blackgrass; conditions: Postemergence, 0 to 100 scale (0 no effect, 100 complete control)
Excerpt: as §1

soybean (Glycine max) [22] = assay: Test A1 preemergence, soybean
Excerpt: as §1

[23] = test system: goosegrass (Eleusine indica); assay: Test A1 postemergence, goosegrass; conditions: Postemergence
Excerpt: as §1

soybean (Glycine max) [24] = assay: Test A1 postemergence, soybean; conditions: Postemergence
Excerpt: as §1

[25] = test system: Ryegrass, Italian (Italian ryegrass, Lolium multiflorum); assay: Test A1 preemergence, Ryegrass, Italian
Excerpt: as §1

[26] = test system: blackgrass (Alopecurus myosuroides); assay: Test A1 preemergence, blackgrass
Excerpt: as §1

[27] = 31 g ai/ha, 0 to 100 scale (0 no effect, 100 complete control), 10 days
[28] = 31 g ai/ha, 0 to 100 scale (0 no effect, 100 complete control)
[29] = 125 g ai/ha, 0 to 100 scale, 0 no effect, 100 complete control

In the case of `COc1cnn(-c2cc(NS(=O)(=O)C(F)(F)F)c(C)cc2C)c(=O)c1OC` [Compound 282], the “Plant response rating, Galium” value ([1]; 125 g ai/ha, 0 to 100 scale) is reported as 0, the “Plant response rating, Oat, Wild” value [2, 27] is reported as 0 and the “Plant response rating, Oat, Wild” value ([2]; 125 g ai/ha, 0 to 100 scale) is reported as 50. The “Plant response rating, Foxtail, Giant” value [3, 27] was 0, the “Plant response rating, Foxtail, Giant” value ([3]; 125 g ai/ha, 0 to 100 scale) was 20 and the “Plant response rating, Oat, Wild” value [4, 28] was 20. For the same compound, the “Plant response rating, Oat, Wild” value [4, 29] was 30, the “Plant response rating, Horseweed” value [5, 27] was 50 and the “Plant response rating, Horseweed” value ([5]; 125 g ai/ha, 0 to 100 scale) was 80. The “Plant response rating, Corn” value (corn (Zea mays) [6]; [28]) was 0, the “Plant response rating, Corn” value (corn (Zea mays) [6]; [29]) was 50 and the “Plant response rating, Ragweed” value [7, 27] was 60. The “Plant response rating, Ragweed” value ([7]; 125 g ai/ha, 0 to 100 scale) was 70, the “Plant response rating, Pigweed, Palmer” value [8, 28] was 0 and the “Plant response rating, Pigweed, Palmer” value [8, 29] was 80. The “Plant response rating, Wheat” value [9, 28] was 0, the “Plant response rating, Wheat” value [9, 29] was 80 and the “Plant response rating, Ragweed” value [10, 28] was 0. For the same compound, the “Plant response rating, Ragweed” value [10, 29] was 20, the “Plant response rating, Pigweed, Palmer” value [11, 27] was 0 and the “Plant response rating, Pigweed, Palmer” value ([11]; 125 g ai/ha, 0 to 100 scale) was 0. For the same compound, the “Plant response rating, Foxtail, Giant” value [12, 28] was 0, the “Plant response rating, Foxtail, Giant” value [12, 29] was 30 and the “Plant response rating, Barnyardgrass (0 to 100 scale, 0 is no effect, 100 is complete control)” value [13] was 0. The “Plant response rating, Goosegrass” value [14, 28] was 0, the “Plant response rating, Goosegrass” value [14, 29] was 90 and the “Plant response rating, Kochia” value (kochia (Bassia scoparia) [15]; [27]) was 10. For the same compound, the “Plant response rating, Kochia” value (kochia (Bassia scoparia) [15]; 125 g ai/ha, 0 to 100 scale) was 30, the “Plant response rating, Kochia” value (kochia (Bassia scoparia) [16]; [28]) was 0 and the “Plant response rating, Kochia” value (kochia (Bassia scoparia) [16]; [29]) was 80. The “Plant response rating, Rice (0 to 100 scale, 0 is no effect, 100 is complete control)” value (rice (Oryza sativa)) was 0, the “Plant response rating, Wheat” value [17, 27] was 60 and the “Plant response rating, Wheat” value ([17]; 125 g ai/ha, 0 to 100 scale) was 80. The “Plant response rating, Ryegrass, Italian” value [18, 27] was 30, the “Plant response rating, Ryegrass, Italian” value ([18]; 125 g ai/ha, 0 to 100 scale) was 60 and the “Plant response rating, Corn” value (corn (Zea mays) [19]; [27]) was 0. The “Plant response rating, Corn” value (corn (Zea mays) [19]; 125 g ai/ha, 0 to 100 scale) was 80, the “Plant response rating, Ducksalad (0 to 100 scale, 0 is no effect, 100 is complete control)” value [20] was 65 and the “Plant response rating, Blackgrass” value ([21]; 31 g ai/ha, 10 days) was 0. The “Plant response rating, Blackgrass” value ([21]; 125 g ai/ha) was 20, the “Plant response rating, Soybean” value (soybean (Glycine max) [22]; [28]) was 20 and the “Plant response rating, Soybean” value (soybean (Glycine max) [22]; [29]) was 20. The “Plant response rating, Goosegrass” value [23, 27] was 20, the “Plant response rating, Goosegrass” value ([23]; 125 g ai/ha, 0 to 100 scale) was 80 and the “Plant response rating, Soybean” value (soybean (Glycine max) [24]; [27]) was 40. For the same compound, the “Plant response rating, Soybean” value (soybean (Glycine max) [24]; 125 g ai/ha, 0 to 100 scale) was 60, the “Plant response rating, Ryegrass, Italian” value [25, 28] was 0 and the “Plant response rating, Ryegrass, Italian” value [25, 29] was 40. For the same compound, the “Plant response rating, Blackgrass” value [26, 28] was 30 and the “Plant response rating, Blackgrass” value [26, 29] was 60.
In the case of `COc1cc(C)c(C2=NOC3(CCCC3)C2)cc1NS(=O)(=O)C(F)(F)F` [Compound 304], the “Plant response rating, Galium” value [1, 27] is reported as 0, the “Plant response rating, Galium” value ([1]; 125 g ai/ha, 0 to 100 scale) is reported as 0 and the “Plant response rating, Oat, Wild” value [2, 27] is reported as 0. The “Plant response rating, Oat, Wild” value ([2]; 125 g ai/ha, 0 to 100 scale) was 0, the “Plant response rating, Foxtail, Giant” value [3, 27] was 0 and the “Plant response rating, Foxtail, Giant” value ([3]; 125 g ai/ha, 0 to 100 scale) was 50. For the same compound, the “Plant response rating, Oat, Wild” value [4, 28] was 50, the “Plant response rating, Oat, Wild” value [4, 29] was 0 and the “Plant response rating, Horseweed” value [5, 27] was 0. For the same compound, the “Plant response rating, Horseweed” value ([5]; 125 g ai/ha, 0 to 100 scale) was 0, the “Plant response rating, Corn” value (corn (Zea mays) [6]; [28]) was 0 and the “Plant response rating, Corn” value (corn (Zea mays) [6]; [29]) was 0. The “Plant response rating, Ragweed” value [7, 27] was 0, the “Plant response rating, Ragweed” value ([7]; 125 g ai/ha, 0 to 100 scale) was 30 and the “Plant response rating, Pigweed, Palmer” value [8, 28] was 0. For the same compound, the “Plant response rating, Pigweed, Palmer” value [8, 29] was 20, the “Plant response rating, Wheat” value [9, 28] was 0 and the “Plant response rating, Wheat” value [9, 29] was 20. The “Plant response rating, Ragweed” value [10, 28] was 0, the “Plant response rating, Ragweed” value [10, 29] was 50 and the “Plant response rating, Pigweed, Palmer” value [11, 27] was 0. For the same compound, the “Plant response rating, Pigweed, Palmer” value ([11]; 125 g ai/ha, 0 to 100 scale) was 0, the “Plant response rating, Foxtail, Giant” value [12, 28] was 0 and the “Plant response rating, Foxtail, Giant” value [12, 29] was 80. For the same compound, the “Plant response rating, Barnyardgrass (0 to 100 scale, 0 is no effect, 100 is complete control)” value [13] was 0, the “Plant response rating, Goosegrass” value [14, 28] was 30 and the “Plant response rating, Goosegrass” value [14, 29] was 90. The “Plant response rating, Kochia” value (kochia (Bassia scoparia) [15]; [27]) was 0, the “Plant response rating, Kochia” value (kochia (Bassia scoparia) [15]; 125 g ai/ha, 0 to 100 scale) was 20 and the “Plant response rating, Kochia” value (kochia (Bassia scoparia) [16]; [28]) was 0. For the same compound, the “Plant response rating, Kochia” value (kochia (Bassia scoparia) [16]; [29]) was 0, the “Plant response rating, Rice (0 to 100 scale, 0 is no effect, 100 is complete control)” value (rice (Oryza sativa)) was 0 and the “Plant response rating, Wheat” value [17, 27] was 0. The “Plant response rating, Wheat” value ([17]; 125 g ai/ha, 0 to 100 scale) was 20, the “Plant response rating, Ryegrass, Italian” value [18, 27] was 0 and the “Plant response rating, Ryegrass, Italian” value ([18]; 125 g ai/ha, 0 to 100 scale) was 0. The “Plant response rating, Corn” value (corn (Zea mays) [19]; [27]) was 0, the “Plant response rating, Corn” value (corn (Zea mays) [19]; 125 g ai/ha, 0 to 100 scale) was 20 and the “Plant response rating, Ducksalad (0 to 100 scale, 0 is no effect, 100 is complete control)” value [20] was 0. For the same compound, the “Plant response rating, Soybean” value (soybean (Glycine max) [22]; [28]) was 0, the “Plant response rating, Soybean” value (soybean (Glycine max) [22]; [29]) was 0 and the “Plant response rating, Goosegrass” value [23, 27] was 0. For the same compound, the “Plant response rating, Goosegrass” value ([23]; 125 g ai/ha, 0 to 100 scale) was 0, the “Plant response rating, Soybean” value (soybean (Glycine max) [24]; [27]) was 20 and the “Plant response rating, Soybean” value (soybean (Glycine max) [24]; 125 g ai/ha, 0 to 100 scale) was 50. The “Plant response rating, Ryegrass, Italian” value [25, 28] was 40, the “Plant response rating, Ryegrass, Italian” value [25, 29] was 50 and the “Plant response rating, Blackgrass” value [26, 28] was 0. The “Plant response rating, Blackgrass” value [26, 29] was 40.
